# Test results published in US20040024055A1, “Pharmaceutical composition containing the exract of saururus chinensis baill useful as an anticancer agent and a process for the preparation thereof” (priority 2000, published 2004).
# Columns and labels:
# [1] = system: NIH-3T3; assay: Adhesion of cell to Matri-Gel; assay type: cell-based, mouse
# Experimental: (§1) After treating HNP-98701 on tissue culture plate coated with the matrices, cancer cell was attached thereupon. To be specific, 50 μl/ml of […], 2 μg/ml of laminin, 2 μg/ml of collagen and 2 μg/ml of gelatin were coated on the surface of 96-well microplate (Corning Co.) per well. After solidifying for 2 hr, HNP-98701 was added to each well and treated for 1 hr. […] After treating the substances for 1 hr, cancer cell was added to each cell, and it was cultured for 3 hr. […] After culturing these cell lines for 3 hr, they were centrifuged. After collecting biomass only, it was washed with distilled water or PBS buffer solution for three times. […] Then, absorbance was measured at 560-405 nm with automatic Eliza detector (Molecular […] Corp., USA). […] Each experiment was performed for three times repeatedly.
# [2] = system: Hep-2; assay: Adhesion of cancer cell to Gelatin; assay type: cell-based, human
# Experimental: as §1
# [3] = system: SK-MEL-28; assay: Adhesion of cancer cell to Gelatin; assay type: cell-based, human
# Experimental: as §1
# [4] = system: SK-Hep-1; assay: Adhesion of cancer cell to Gelatin; assay type: cell-based, human
# Experimental: as §1
# [5] = system: HS27; assay: MTT analysis, cytotoxicity against normal cell line; assay type: cell-based, human; details: Homo sapiens, HS27; MTT, 48 hr
# [6] = system: SK-BR-3; assay: MTT analysis, anticancer activity; assay type: cell-based, human; details: Homo sapiens, SK-BR-3, 48 hr
# [7] = system: 293; assay: MTT analysis, cytotoxicity against normal cell line; assay type: cell-based, human; details: Homo sapiens, HEK293; MTT, 48 hr
# [8] = system: HS-746T; assay: MTT analysis, anticancer activity; assay type: cell-based, human; details: Homo sapiens, Hs746T; MTT, 48 hr
# [9] = system: BT-549; assay: MTT analysis, anticancer activity; assay type: cell-based, human; details: Homo sapiens, BT-549; MTT, 48 hr
# [10] = system: SK-MEL-28; assay: MTT analysis, anticancer activity; assay type: cell-based, human; details: Homo sapiens, SK-MEL-28, 48 hr
# [11] = system: A431; assay: MTT analysis, anticancer activity; assay type: cell-based, human; details: Homo sapiens, A-431, 48 hr
# [12] = system: NCI-H69; assay: MTT analysis, anticancer activity; assay type: cell-based, human; details: Homo sapiens, NCI-H69; MTT, 48 hr
smiles,measurement,setting,value
"COc1cccc2c1C(=O)c1c(O)c3c(c(O)c1C2=O)C[C@@](O)(C(=O)CO)C[C@@H]3O[C@H]1C[C@H](N)[C@H](O)[C@H](C)O1 [Adriamycin, adriamycin (doxorubicin)]",Adhesion NIH-3T3 (%),[1]; 0.1 μg/ml,115.00%
same,Adhesion NIH-3T3 (%),[1]; 1 μg/ml,108.65%
same,Adhesion NIH-3T3 (%),[1]; 10 μg/ml,104.23%
same,Adhesion Hep-2 (%),[2]; 0.1 μg/ml,104.27%
same,Adhesion Hep-2 (%),[2]; 1 μg/ml,98.27%
same,Adhesion Hep-2 (%),[2]; 10 μg/ml,97.73%
same,Adhesion SK-MEL-28 (%),[3]; 0.1 μg/ml,96.39%
same,Adhesion SK-MEL-28 (%),[3]; 1 μg/ml,97.42%
same,Adhesion SK-MEL-28 (%),[3]; 10 μg/ml,97.21%
same,Adhesion SK-Hep-1 (%),[4]; 0.1 μg/ml,85.77%
same,Adhesion SK-Hep-1 (%),[4]; 1 μg/ml,76.37%
same,Adhesion SK-Hep-1 (%),[4]; 10 μg/ml,33.29%
same,IC50,[5],0.218 µg/mL
same,IC50,[6],0.705 µg/mL
same,IC50,[7],< 0.008 µg/mL
same,IC50,[8],> 50 µg/mL
same,IC50,[9],0.438 µg/mL
same,IC50,[10],0.75 µg/mL
same,IC50,[11],0.0675 µg/mL
same,IC50,[12],0.168 µg/mL
